Laboratory results published in patent publication US5439812A, “Antibodies catalyzing deamidation of proteins” (The Pennsylvania Research Corporation, priority 1992, dated 1995).
Where a name gives a salt, the structure may show the parent alone. Square brackets hold non-standard residues; d marks the D form. Peptide text beside a SMILES is read from it. * marks the point of attachment. ξ: configuration not given here. NHPhenethyl = c1ccc(CCN*)cc1; ξN = NC(=O)CC(N)C(=O)O

Tests used:
[1] = tested on: monoclonal catalytic antibody 24C3 raised to the RG2 hapten-KLH conjugate; test: deamidation of the Asn-Gly substrate catalysed by antibody 24C3 (glutamate dehydrogenase coupled ammonia assay); format: biochemical, mouse
Excerpt: (§1) The resulting hybridomas are subjected to a preliminary screening for binding to the hapten using standard methods specifically as described in U.S. Pat. No. 5,079,152 to Benkovic et al, noted above. […] This assay is chosen to specifically screen for those antibodies which catalyze the deamidation reaction and assays by the determination of ammonia. The procedure is a modification of known procedures which use glutamate dehydrogenase to detect ammonia. (See Foncesca-Wollheim, F. Clin. Chem., […], 1483-1487 (1990), and von Anken, H. D., Schiphorst, M. E., Clinica Chimica Acta, 56, 151-157 (1974)).
The deamidation to the cyclic imide intermediate is assayed by a spectrophotometric procedure coupling the antibody-catalyzed reaction to the enzyme glutamate dehydrogenase. […] The glutamate dehydrogenase reaction is monitored spectrophotometrically. […]
The solution is then transfered to a small cuvette and the decrease in absorbance at 340 nanometers is followed over a period of several hours. […] The antibody catalyzed rate is determined by subtracting the overall rate (antibody-catalyzed and spontaneous rates) from the spontaneous rate determined from the control reaction. […]

[2] = tested on: monoclonal catalytic antibody 2E4 raised to the RG2 hapten-KLH conjugate; test: deamidation of the Asn-Gly substrate catalysed by antibody 2E4 (glutamate dehydrogenase coupled ammonia assay); format: biochemical, mouse
Excerpt: as §1
The deamidation to the cyclic imide intermediate is assayed by a spectrophotometric procedure coupling the antibody-catalyzed reaction to the enzyme glutamate dehydrogenase. Glutamate dehydrogenase utilizes the ammonia produced from the antibody-catalyzed deamidation reaction to convert alpha-ketoglutarate into glutamic acid, oxidizing nicotimamide dinucleotide phosphate in the process (NADPH is oxidized to NADP). The glutamate dehydrogenase reaction is monitored spectrophotometrically.
Thirty antibodies are picked for assay for catalytic activity. The antibodies are delivered in phosphate buffered saline solutions. These are then dialyzed into bicine buffer (pH 9.0, 0.10M) and 100 uL of the dialyzed solution was then added to a solution of bicine (166 uL, pH 9.0, 0.10M). To this is added 16.5 uL of a solution containing 400 uM NADPH, α-ketoglutarate, and adenosine diphosphate. This is mixed thoroughly and then 16.5 uL of analytical grade glutamate dehydrogenase (Boehringer Mannheim) is added and the solution is again mixed thoroughly. The reaction is initiated by addition of the substrate which is stored in a DMSO solution such that the total concentration of DMSO was 5%.
The solution is then transfered to a small cuvette and the decrease in absorbance at 340 nanometers is followed over a period of several hours. Control reactions are performed under identical conditions without the addition of antibody to the reaction mixture (bicine buffer was added in place of the antibody to maintain volume). The antibody catalyzed rate is determined by subtracting the overall rate (antibody-catalyzed and spontaneous rates) from the spontaneous rate determined from the control reaction.
This is not a Vmx since the substrate was not at total saturation of the antibody. The actual rate enhancement is probably greater. […]

## O=C(O)CCCC(=O)NC1CP(=O)(O)C(CC(=O)NCCc2ccccc2)C1O (stereo not drawn) [phospholane hapten, N-(Z-Phenylethyl)-[1'-hydroxyphosphol-3'-hydroxy-4'-(5-hydroxy-5-oxo-pentanoyl)amino-1'-oxo-2'-yl]acetamide disodium salt]
[1]
  inhibition of antibody-catalysed deamidation by hapten: inhibition of this reaction with hapten
[2]
  inhibition of antibody-catalysed deamidation by hapten: stoichiometrically inhibited

## CC(=O)NC(CC(N)=O)C(=O)NCC(=O)NCCc1ccccc1 (stereo not drawn) [substrate, phenyl ethyl derivative of the asparaginyl-glycyl dipeptide] (Ac-[ξN]-Gly-NHPhenethyl)
[1]; not a true Vmax
  kcat: 0.352
[2]; 2E4 investigated in more detail
  kcat: 1.5±0.3×10^-4 s^-1
[2]; 2E4 investigated in more detail, read-out: binding affinity for the substrate (Km)
  Km: 220 ± 10 µM
[2]; 25° C., bicine pH 9.0, substrate 451 uM, antibody 27.4 uM, not a Vmax, substrate not at total saturation
  kcat: 0.416 h⁻¹
